Where two headings read alike, the source gives them in different places.
Columns and labels:
[1] = system: JumpIn-NET cells; assay: TRACT assay (xCELLigence impedance): substrate-induced cellular response, apparent substrate potency; format: cell-based, human; conditions: for Decrease of apparent potency in dox-treated compared to vehicle-treated cells: +dox vs −dox JumpIn-NET cells; for EC50: Homo sapiens
[2] = system: JumpIn-NET cells; assay: Effect of NET inhibitor alone on normalized Cell Index during 1 h pretreatment (xCELLigence); format: cell-based, human; conditions: +dox JumpIn-NET cells; for Effect on nCI during pretreatment at highest tested concentration: 10 µM
[3] = doxycycline-treated (+dox) JumpIn-NET cells, 1 h pretreatment with 1 µM nisoxetine, read-out: Apparent potency pEC50 ± SEM (converted)
[4] = vehicle-treated (−dox) JumpIn-NET cells, no nisoxetine pretreatment, net AUC first 30 min, read-out: Apparent potency pEC50 ± SEM (converted)

Row | Structure (SMILES) | Decrease of apparent potency in dox-treated compared to vehicle-treated cells [1] | EC50 [1, 3] | EC50 [1, 4] | Effect on nCI during pretreatment at highest tested concentration [2] | further results
1 | Cl.NCCc1ccc(O)c(O)c1 [DA, dopamine hydrochloride] | twofold lower | 39800 nM | 7940 nM | – | –
2 | CNC[C@H](O)c1ccc(O)c(O)c1.O=C(O)C(O)C(O)C(=O)O [EP, (−)-epinephrine (+)-bitartrate salt] | decreased tenfold | – | – | – | Basal response in vehicle-pretreated cells, higher than that of NE ([1]; 1 µM substrate (EC20), +dox cells, no inhibitor): approximately 60%; EC50 ([1]; read-out: Apparent potency pEC50 ± SEM, doxycycline-treated (+dox) JumpIn-NET cells, 1 h pretreatment with 1 µM nisoxetine (converted)): 501 nM; EC50 ([1]; read-out: Apparent potency pEC50 ± SEM, doxycycline-treated (+dox) JumpIn-NET cells, no nisoxetine pretreatment (converted)): 3980 nM; EC50 ([1]; read-out: Apparent potency pEC50 ± SEM, vehicle-treated (−dox) JumpIn-NET cells, no nisoxetine pretreatment (converted), net AUC first 30 min): 398 nM
4 | CC(NC(C)(C)C)C(=O)c1cccc(Cl)c1.Cl (centres unmarked) [Bupropion, bupropion hydrochloride] | – | – | – | transient increase in nCI | –
5 | CNCC[C@@H](Oc1ccccc1C)c1ccccc1.Cl [Atomoxetine, atomoxetine hydrochloride] | – | – | – | transient increase in nCI | –
6 | CNCCC(Oc1ccccc1OC)c1ccccc1.Cl (centres unmarked) [Nisoxetine, Nisoxetine hydrochloride] | – | – | – | transient increase in nCI | Effect on nCI during the 1 h pretreatment ([2]; 1 µM): did not affect the nCI
